Measurements reported in ChEMBL document CHEMBL3739291, “3-AminooxazolidinoneAHL analogs as hydrolytically-stable quorum sensingagonists in Gram-negative bacteria” (Medchemcomm, 2015).
The source made the active and inactive calls. The calls are words filed in the database; no cut-off is given here.

Assays:
[1] = Agonist activity at Escherichia coli JM109 LasR assessed as induction of bioluminescence after 8 hrs by luminometric analysis
[2] = biological target: T1, CviR transcriptional regulator (Chromobacterium violaceum) (UniProt D3W065); test: Antagonist activity at Chromobacterium violaceum CV026 CviR assessed as inhibition of C4-HSL-induced violacein production at 2 uM preincubated at 32 degC for day 1 followed by further incubation at 25 degC on day 2 by agar plate assay
T1 sequence (whole entry): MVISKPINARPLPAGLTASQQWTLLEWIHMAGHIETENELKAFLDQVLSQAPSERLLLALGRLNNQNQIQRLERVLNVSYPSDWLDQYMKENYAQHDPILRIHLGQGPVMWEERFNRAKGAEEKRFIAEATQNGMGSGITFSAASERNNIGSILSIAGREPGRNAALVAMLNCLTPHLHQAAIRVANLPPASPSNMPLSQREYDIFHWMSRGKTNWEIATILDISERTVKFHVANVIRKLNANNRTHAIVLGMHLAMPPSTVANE

[3] = Stability in 180 mM Tris-HCl buffer at pH 8 measured for 3 hrs by HPLC analysis; assay type: physicochemical; conditions: pH 8, 3 h
[4] = biological target: T1, CviR transcriptional regulator (Chromobacterium violaceum); test: Agonist activity at Chromobacterium violaceum CV026 CviR assessed as production of violacein at 20 uM preincubated at 32 degC for day 1 followed by further incubation at 25 degC on day 2 by agar plate assay
[5] = biological target: T1, CviR transcriptional regulator (Chromobacterium violaceum); test: Antagonist activity at Chromobacterium violaceum CV026 CviR assessed as inhibition of C4-HSL-induced violacein production preincubated at 32 degC for day 1 followed by further incubation at 25 degC on day 2 by agar plate assay

| EC50 [1] [nM] | inhibition [2] | Stability [3] | inhibition [5] | SMILES | Activity [4] |
| --- | --- | --- | --- | --- | --- |
| 1.5 | Active | Stable | – | CCCCCCCCCC(=O)CC(=O)N[C@H]1CCOC1=O | – |
| – | – | – | – | CCCC(=O)NN1CCOC1=O | Active |
| – | – | – | – | CCCC(=O)N[C@H]1CCOC1=O | Active |
| 2.1 | – | Stable | Active | CCCCCCCCCC(=O)CC(=O)NN1CCOC1=O | – |
